According to publication doi:10.1101/2025.08.21.671483v1, “In vitro and in vivo activity profiles of broad-spectrum bacterial ATP synthase inhibitors” (biorxiv, 2025):
Converted amounts (≈) assume the structure as drawn. Like-named read-outs stand apart in the source and are kept apart here. Where a SMILES comes first, the peptide text is derived from it. Bridges are numbered along the chain shown (N, C = ends). [ ]: non-standard residue; d: D form. The star is where a group is joined. Heptanoyl(5-Me) = CCC(C)CCCC(=O)*; Dab = NCC[C@H](N)C(=O)O

Experiments:
[1] = system: T1, S. aureus ATCC 29740 (Newbould); assay: microbe, parasite or virus in culture; parameters: species or system bacteria; CLSI broth microdilution MIC, no visible growth; conditions: Staphylococcus aureus
T1 construct: ATCC 29740 (Newbould)

S. aureus ATCC 29740hemB = assay: microbe, parasite or virus in culture; conditions: Staphylococcus aureus, ATCC29740HEMB, read-out: MIC
E. coli MC4100 WT = system: T2, E. coli MC4100 WT; assay: microbe, parasite or virus in culture; parameters: species or system bacteria; CLSI broth microdilution MIC, no visible growth; conditions: Escherichia coli, MC4100WT
T2 construct: MC4100 (ATCC 35695)

E. coli MC4100 lptD4213 = system: T3, E. coli MC4100 lptD4213; assay: microbe, parasite or virus in culture; conditions: Escherichia coli, MC4100LPTD4213, read-out: MIC
T3 construct: MC4100 lptD4213 membrane-compromised

E. coli MC4100 acrAB = system: T4, E. coli MC4100 acrAB; assay: microbe, parasite or virus in culture; conditions: Escherichia coli, MC4100ACRAB, read-out: MIC
T4 construct: MC4100 acrAB efflux-deficient

E. coli ATCC 25922 [2] = system: T5, E. coli ATCC 25922; assay: microbe, parasite or virus in culture; parameters: species or system bacteria; CLSI broth microdilution MIC, no visible growth; conditions: Escherichia coli
T5 construct: ATCC 25922

Escherichia coli ec308 = system: T6, Escherichia coli ec308; assay: microbe, parasite or virus in culture; parameters: species or system bacteria; CLSI broth microdilution MIC, no visible growth
T6 construct: ec308

Escherichia coli ec305 = system: T7, Escherichia coli ec305; assay: microbe, parasite or virus in culture; parameters: species or system bacteria; CLSI broth microdilution MIC, no visible growth
T7 construct: ec305

Escherichia coli ec310 = system: T8, Escherichia coli ec310; assay: microbe, parasite or virus in culture; parameters: species or system bacteria; CLSI broth microdilution MIC, no visible growth
T8 construct: ec310

[3] = system: T9, Escherichia coli ATCC BAA2471; assay: microbe, parasite or virus in culture; parameters: species or system bacteria; CLSI broth microdilution MIC, no visible growth
T9 construct: ATCC BAA-2471

[4] = system: T10, Escherichia coli 70122 CW-2007; assay: microbe, parasite or virus in culture; parameters: species or system bacteria; CLSI broth microdilution MIC, no visible growth
T10 construct: 70122 CW-2007

Escherichia coli ec302 = system: T11, Escherichia coli ec302; assay: microbe, parasite or virus in culture; parameters: species or system bacteria; CLSI broth microdilution MIC, no visible growth
T11 construct: ec302

[5] = system: T12, Escherichia coli 95882 CW-2011; assay: microbe, parasite or virus in culture; parameters: species or system bacteria; CLSI broth microdilution MIC, no visible growth
T12 construct: 95882 CW-2011

Escherichia coli ec309 = system: T13, Escherichia coli ec309; assay: microbe, parasite or virus in culture; parameters: species or system bacteria; CLSI broth microdilution MIC, no visible growth
T13 construct: ec309

[6] = system: T14, Escherichia coli ATCC 35218; assay: microbe, parasite or virus in culture; parameters: species or system bacteria; CLSI broth microdilution MIC, no visible growth
T14 construct: ATCC 35218

E. coli ATCC 25922 [7] = system: T5, E. coli ATCC 25922; assay: microbe, parasite or virus in culture; parameters: species or system bacteria; CLSI broth microdilution MIC, no visible growth; conditions: Escherichia coli; remark: listed apart in the source
S. aureus ATP synthase = target: T15, S. aureus ATP synthase (Staphylococcus aureus, UniProt Q99SF0); assay: ATP production by membrane vesicles, luciferase luminescence; format: biochemical; conditions: […] NADH, 1 mM ADP, 10 mM potassium phosphate; 30 min preincubation, 60 min reaction
T15 construct: gene atpE
From the text: ATP production by membrane vesicles, luciferase luminescence on S. aureus ATP synthase

E. coli ATP synthase = target: T16, E. coli ATP synthase (Escherichia coli, UniProt P68699); assay: as above; format: biochemical; conditions: […] NADH, 1 mM ADP, 10 mM potassium phosphate; 30 min preincubation, 60 min reaction
T16 construct: gene atpE
From the text: ATP production by membrane vesicles, luciferase luminescence on E. coli ATP synthase

[8] = system: T17, Escherichia coli ATCC 25922; assay: microbe, parasite or virus in culture; conditions: ATCC25922, read-out: MIC (ug/ml) first column
T17 construct: ATCC 25922

## C[C@H]1CC[C@]2(NC1)O[C@H]1C[C@H]3[C@@H]4CC[C@H]5C[C@@H](O)CC[C@]5(C)[C@H]4CC[C@]3(C)[C@H]1[C@@H]2C [TO, tomatidine]
[1]; ATCC29740, read-out: TO MIC
  MIC: > 128 µg/mL
S. aureus ATCC 29740hemB
  MIC: ≤ 0.25 µg/mL
E. coli MC4100 WT; read-out: TO MIC
  MIC: > 128 µg/mL
E. coli MC4100 lptD4213
  MIC: > 128 µg/mL
E. coli MC4100 acrAB
  MIC: > 128 µg/mL
E. coli ATCC 25922 [2]; ATCC25922, read-out: TO MIC
  MIC: > 128 µg/mL

## CCC(C)CCCC(=O)N[C@@H](CCN)C(=O)N[C@H](C(=O)N[C@@H](CCN)C(=O)N[C@H]1CCNC(=O)[C@H]([C@@H](C)O)NC(=O)[C@H](CCN)NC(=O)[C@H](CCN)NC(=O)[C@H](CC(C)C)NC(=O)[C@@H](CC(C)C)NC(=O)[C@H](CCN)NC1=O)[C@@H](C)O (stereo partly drawn) [CST, colistin] ({Heptanoyl(5-Me)}-[Dab]T[Dab][Dab][Dab][dL]L[Dab][Dab]T; lactam 4-C)
Escherichia coli ec308; EC308, read-out: CST MIC
  MIC: 0.5 µg/mL (≈ 0.433 µM)
Escherichia coli ec305; EC305, read-out: CST MIC
  MIC: 0.5 µg/mL (≈ 0.433 µM)
Escherichia coli ec310; EC310, read-out: CST MIC
  MIC: 1 µg/mL (≈ 0.865 µM)
[3]; ATCCBAA2471, read-out: CST MIC
  MIC: 1 µg/mL (≈ 0.865 µM)
[4]; 70122CW2007, read-out: CST MIC
  MIC: 1 µg/mL (≈ 0.865 µM)
Escherichia coli ec302; EC302, read-out: CST MIC
  MIC: 0.5 µg/mL (≈ 0.433 µM)
[5]; 95882CW2011, read-out: CST MIC
  MIC: 0.5 µg/mL (≈ 0.433 µM)
Escherichia coli ec309; EC309, read-out: CST MIC
  MIC: 1 µg/mL (≈ 0.865 µM)
[6]; ATCC35218, read-out: CST MIC
  MIC: 2 µg/mL (≈ 1.73 µM)
E. coli ATCC 25922 [7]; ATCC25922, read-out: CST MIC
  MIC: 1 µg/mL (≈ 0.865 µM)

## C[C@H]1CC[C@]2(NC1)O[C@H]1C[C@H]3[C@@H]4CC[C@H]5CC(NCCN)CC[C@]5(C)[C@H]4CC[C@]3(C)[C@H]1[C@@H]2C (mixture of isomers) [TM-02]
[1]; ATCC29740, read-out: TM-02 MIC
  MIC: 4 µg/mL
Escherichia coli ec308; EC308, read-out: Table 3 TM-02 MIC
  MIC: 8 µg/mL
Escherichia coli ec305; EC305, read-out: Table 3 TM-02 MIC
  MIC: 4 µg/mL
Escherichia coli ec310; EC310, read-out: Table 3 TM-02 MIC
  MIC: 32 µg/mL
[3]; ATCCBAA2471, read-out: Table 3 TM-02 MIC
  MIC: 32 µg/mL
[4]; 70122CW2007, read-out: Table 3 TM-02 MIC
  MIC: 16 µg/mL
Escherichia coli ec302; EC302, read-out: Table 3 TM-02 MIC
  MIC: 32 µg/mL
[5]; 95882CW2011, read-out: Table 3 TM-02 MIC
  MIC: 32 µg/mL
Escherichia coli ec309; EC309, read-out: Table 3 TM-02 MIC
  MIC: 32 µg/mL
[6]; ATCC35218, read-out: Table 3 TM-02 MIC
  MIC: 32 µg/mL
S. aureus ATP synthase
  IC50: 510 ± 170 nM
S. aureus ATCC 29740hemB
  MIC: ≤ 0.25 µg/mL
E. coli ATP synthase
  IC50: 1490 ± 280 nM
E. coli MC4100 WT; read-out: TM-02 MIC
  MIC: 16 µg/mL
E. coli MC4100 lptD4213
  MIC: 0.5 µg/mL
E. coli MC4100 acrAB
  MIC: 8 µg/mL
[8]
  MIC: 32 µg/mL
E. coli ATCC 25922 [2]; ATCC25922, read-out: TM-02 MIC
  MIC: 32 µg/mL

## O=C1CN(/N=C/c2ccc([N+](=O)[O-])o2)C(=O)N1 [NIT, nitrofurantoin]
Escherichia coli ec308; EC308, read-out: NIT MIC
  MIC: 8 µg/mL (≈ 33.6 µM)
Escherichia coli ec305; EC305, read-out: NIT MIC
  MIC: 8 µg/mL (≈ 33.6 µM)
Escherichia coli ec310; EC310, read-out: NIT MIC
  MIC: 8 µg/mL (≈ 33.6 µM)
[3]; ATCCBAA2471, read-out: NIT MIC
  MIC: 32 µg/mL (≈ 134 µM)
[4]; 70122CW2007, read-out: NIT MIC
  MIC: 32 µg/mL (≈ 134 µM)
Escherichia coli ec302; EC302, read-out: NIT MIC
  MIC: 16 µg/mL (≈ 67.2 µM)
[5]; 95882CW2011, read-out: NIT MIC
  MIC: 8 µg/mL (≈ 33.6 µM)
Escherichia coli ec309; EC309, read-out: NIT MIC
  MIC: 16 µg/mL (≈ 67.2 µM)
[6]; ATCC35218, read-out: NIT MIC
  MIC: 0.25 µg/mL (≈ 1.05 µM)
E. coli ATCC 25922 [7]; ATCC25922, read-out: NIT MIC
  MIC: 8 µg/mL (≈ 33.6 µM)

## C[C@@H](O)[C@H]1C(=O)N2C(C(=O)O)=C(S[C@@H]3CN[C@H](C(=O)N(C)C)C3)[C@H](C)[C@H]12 [MEM, meropenem]
Escherichia coli ec308; EC308, read-out: MEM MIC
  MIC: 0.06 µg/mL (≈ 0.156 µM)
Escherichia coli ec305; EC305, read-out: MEM MIC
  MIC: 0.06 µg/mL (≈ 0.156 µM)
Escherichia coli ec310; EC310, read-out: MEM MIC
  MIC: 0.06 µg/mL (≈ 0.156 µM)
[3]; ATCCBAA2471, read-out: MEM MIC
  MIC: > 32 µg/mL
[4]; 70122CW2007, read-out: MEM MIC
  MIC: 0.06 µg/mL (≈ 0.156 µM)
Escherichia coli ec302; EC302, read-out: MEM MIC
  MIC: 0.06 µg/mL (≈ 0.156 µM)
[5]; 95882CW2011, read-out: MEM MIC
  MIC: 4 µg/mL (≈ 10.4 µM)
Escherichia coli ec309; EC309, read-out: MEM MIC
  MIC: 0.06 µg/mL (≈ 0.156 µM)
[6]; ATCC35218, read-out: MEM MIC
  MIC: 0.06 µg/mL (≈ 0.156 µM)
E. coli ATCC 25922 [7]; ATCC25922, read-out: MEM MIC
  MIC: 0.06 µg/mL (≈ 0.156 µM)
